Measured values reported in publication PMC3258254, “Intestinal Absorption and First-Pass Metabolism of Polyphenol Compounds in Rat and Their Transport Dynamics in Caco-2 Cells” (PLoS ONE, 2012).

Tests used:
[1] = Transport (permeability, Papp) across Caco-2 cell monolayers; type: in vitro ADME, human; conditions: human, mean ± SD; for Papp A→B at 50 µM: Caco-2, apical to basolateral, n = 6, read-out: Papp AP to BL; for Papp B→A at 50 µM: Caco-2, basolateral to apical, n = 6, read-out: Papp BL to AP
Description: (§1) Caco-2 cells, derived from human colorectal adenocarcinoma cells, were obtained from the American Type Culture Collection (Manassas, VA, USA) and maintained in plastic culture flasks (Corning Costar, Cambridge, MA, USA). The cells were cultured in Dulbecco's modified Eagle's minimal essential medium supplemented with 1% non-essential amino acids, 1% L-glutamine, 20% foetal bovine serum, 100 U•mL^–1 penicillin, and 0.1 mg•mL^–1 streptomycin, and were grown in a humidified atmosphere of 5% CO2 in air at 37°C (Figure S1). Cells were subcultured to 80% confluency.
(§2) For transport experiments, Caco-2 cells were seeded at a cell density of 1×10^5 cells•cm^−2 on Millicell Cell Culture Inserts (Millipore, Billerica, MA, USA). Cells were used 19 to 21 days after seeding, by which time the transepithelial electrical resistance value was >300 Ω•cm^–2. The culture medium was replaced with fresh medium 24 h before the transport experiments. Polyphenol compounds (50 µM) were added from the apical or basolateral side to evaluate the transport characteristics of the cells. To investigate the role of different transporters, Caco-2 cells were preincubated with verapamil (an inhibitor of P-glycoprotein), cyclosporine A (a dual inhibitor of P-glycoprotein and multi-drug resistance protein 2, MRP2), or phloridzin, (a selective inhibitor of sodium/glucose cotransporter 1, SGLT1) to investigate the absorptive and transport changes of the polyphenol compounds [19]–[20]. The samples were collected and stored at −70°C until needed for analysis.

[2] = system: Caco-2 cells; test: as above; type: in vitro ADME, human; conditions: 50 µM, parent compound
Description: as §1, §2

[3] = system: rat small intestine; test: In situ intestinal perfusion model (isolated rat small intestine, luminal and vascular perfusion); type: in vivo
Description: The rats were anaesthetized with an intra-abdominal injection of a mixture containing 40 mg•kg^–1 sodium phenobarbital. The animals were then heparinized (90 U•kg^–1) via the vena caudalis. […] Briefly, a segment of intestine between 7 and 11 cm long was identified and separated and silicone tubing was placed inside both ends of the segment. The tube at the proximal side was connected to a peristaltic pump for luminal perfusion.

[4] = system: Caco-2 cells; test: Cellular uptake / intracellular accumulation in Caco-2 cells, with or without transporter inhibitors; type: in vitro ADME, human; conditions: for Intracellular accumulation / uptake in the presence of phloridzin: 50 µM phloridzin (SGLT1 inhibitor); for Time of maximum intracellular accumulation (given as Cmax): 50 µM, parent compound in Caco-2 cells; for Intracellular accumulation after pre-treatment with cyclosporine A: 100 µM cyclosporine A (P-glycoprotein and MRP2 inhibitor); for Intracellular accumulation after pre-treatment with verapamil: 100 µM verapamil (P-glycoprotein inhibitor)
Description: Caco-2 cells, derived from human colorectal adenocarcinoma cells, were obtained from the American Type Culture Collection (Manassas, VA, USA) and maintained in plastic culture flasks (Corning Costar, Cambridge, MA, USA). […] Cells were subcultured to 80% confluency. For all cellular uptake studies of polyphenols, Caco-2 cells were seeded at a cell density of 6×10^5 cells•cm^–2 on six-well plastic plates. Cells were used 14 to 21 days after seeding. The culture medium was replaced with fresh medium 24 h before the uptake experiments. Polyphenol compounds (50 µM) were added to evaluate the uptake characteristics of Caco-2 cells. To determine the intracellular concentration of polyphenols, the cell lysate was obtained by subjecting the drug-containing cells to three freeze-thaw cycles in liquid nitrogen. Protein concentrations were measured using the Bradford method with bovine serum albumin as a standard. For transport experiments, Caco-2 cells were seeded at a cell density of 1×10^5 cells•cm^−2 on Millicell Cell Culture Inserts (Millipore, Billerica, MA, USA). […] The culture medium was replaced with fresh medium 24 h before the transport experiments. Polyphenol compounds (50 µM) were added from the apical or basolateral side to evaluate the transport characteristics of the cells. […] The samples were collected and stored at −70°C until needed for analysis.

[5] = Pharmacokinetics in rat plasma after oral administration of polyphenols; conditions: for AUC / Cmax: 50 µmol•kg^–1; for K / T1/2Ke / Tpeak: rat plasma, oral 50 µmol•kg^–1, mean ± SD, n = 6
Excerpt: Male Sprague-Dawley rats (70–110 days old) weighing between 270 g and 320 g were obtained from the experimental animal centre of the Fourth Military Medical University, Xi'an, China. The rats were subjected to fasting overnight, with free access to water before the day of experiment.
The polyphenol compounds solution, prepared in 0.5% sodium carboxyl methyl cellulose (CMC-Na), were orally administrated to the rats using a dose of 50 µmol•kg^–1. Blood samples were collected from the vena abdominalis under light ether anaesthesia at different times (0.08, 0.17, 0.5, 1, 2, 4, 8, 12, 16, 24 and 36 h). The samples were immediately centrifuged for 10 min at 7185 g to obtain plasma, which was then frozen at −70°C until required for analysis.
Metabolite samples were analyzed after treatment with β-glucuronidase or sulphatase [21]–[22]. The samples (0.2 mL) were extracted with 1 mL ethyl acetate by vigorous vortex mixing for 1 min, then centrifuged at 3000× g at room temperature for 10 min. The supernatants were evaporated to dryness under N2, reconstituted in 100 µL of methanol, and analyzed for the presence of polyphenols and their derivatives using liquid chromatography coupled with tandem mass spectrometry (LC/MS/MS) using a Quattro Premier system operating under MassLynx MS Software, v4.1 (Waters Corporation, Milford, MA, USA). […] Quantitation was performed by multiple reaction monitoring of the deprotonated precursor ion and the related product ion for these polyphenols using the internal standard method with peak area ratio [23]–[24]. Collision-induced dissociation was achieved using argon as the collision gas. Standard solutions of the polyphenol compounds (1 µg•mL^–1) were applied to optimize the detection conditions in the presence of mobile phase. […] The column temperature and flow rate were 25°C and 0.2 mL⋅min^–1, respectively.

[6] = male, Sprague-Dawley, rat, in vivo, po
[7] = male, Sprague-Dawley, rat, plasma, po
[8] = 1500 nmol applied, perfusion 60 min
[9] = 1500 nmol applied, perfusion 60 min, mean ± SD, n = 3

| SMILES | Papp A→B at 50 µM [1] [×10⁻⁶ cm/s] | Papp B→A at 50 µM [1] [×10⁻⁶ cm/s] | Permeability value BL to AP compared with AP to BL [2] | Intracellular accumulation / uptake in the presence of phloridzin [4] | Time of maximum intracellular accumulation (given as Cmax) [4] | Intracellular accumulation after pre-treatment with cyclosporine A [4] | Intracellular accumulation after pre-treatment with verapamil [4] | K [5] | T1/2Ke [5] [h] | Tpeak [5] [h] | Total percentage of parent compound and metabolites, luminal side compared with vascular side ([3]; rat, in vivo) | Luminal effluent, % of delivered dose ([3]; rat, in vivo, 60 min) | AUC [5, 7] [ng·h/mL] | Cmax [5, 7] [ng/mL] | other results |
| --- | --- | --- | --- | --- | --- | --- | --- | --- | --- | --- | --- | --- | --- | --- | --- |
| Cc1cc(O)c2c(c1)C(=O)c1cc(O)cc(O)c1C2=O [Emodin] | 9.52 ± 1.45 | 24.4 ± 3.22 | much greater (by a factor of two) | reduced the cellular uptake | 10 min | increased the uptake | increased the uptake | 0.23 ± 0.04 h⁻¹ | 2.93 ± 0.04 | 0.50 ± 0.01 | – | – | – | – | Total percentage of parent compound and metabolites, luminal side compared with vascular side ([3]; isolated intestine perfusion, estimated): two- to three-fold greater; Plasma concentration of glucuronidated metabolites relative to sulphated metabolites [5, 6]: 10 fold; AUC [5, 6]: 809 ± 17 ng·h/mL; Cmax [5, 6]: 72 ± 6 ng/mL |
| O=c1cc(-c2ccc(O)cc2)oc2cc(O)cc(O)c12 [Apigenin] | 13.8 ± 1.21 | 12.9 ± 2.54 | no changes | no changes were observed | 10 min | clearly increased | clearly increased | 0.16±0.02 ^1 h^−1 | 2.11 ± 0.03 | 0.50 ± 0.01 | two- to three-fold greater | 53.87 ^2% | 659 ± 25 | 42 ± 2 | – |
| Oc1ccc(/C=C/c2cc(O)cc(O)c2)cc1 [Resveratrol] | 11.3 ± 3.45 | 7.86 ± 2.67 | lower | no changes were observed | increased in a time-dependent manner | clearly increased | clearly increased | 0.38 ± 0.03 h⁻¹ | 1.82 ± 0.05 | – | – | – | 98 ± 7 | 157 ± 13 | Luminal effluent, % of delivered dose [3, 8]: 35.37 ^2%; Vascular side, % of delivered dose [3, 8]: 12.74 ^2%; Luminal effluent, amount [3, 9]: 536 ± 27 nmol; Vascular side, amount [3, 9]: 193 ± 11 nmol |
| Cc1cc(O)c2c(c1)C(=O)c1cccc(O)c1C2=O [Chrysophanol] | 10.8 ± 2.34 | 27.4 ± 4.19 | much greater (by a factor of two) | reduced the cellular uptake | 10 min | increased the uptake | increased the uptake | 0.08 ± 0.01 h⁻¹ | 8.00 ± 0.28 | 3.00 ± 0.01 | no clear differences | 36.82 ^2% | 1720 ± 57 | 326 ± 18 | Vascular side, % of delivered dose ([3]; rat, in vivo, 60 min): 32.22 ^2% |
